Measurements from patent publication US9914969B2, “Fads regulation” (CORNELL UNIVERSITY, priority 2012, dated 2018).
Entries after “also recorded” stand apart in the source; their conditions may differ.

How the values were obtained:
FADS2 expression = FADS2 expression in lymphoblasts after drug treatment (qRT-PCR); type: cell-based, human; conditions: 24 hours
Procedure: Immortalized B-lymphocyte (lymphoblast) cell lines from Japanese HapMap participants were obtained from the Coriell Institute for Medical Research, and used within 10 passages of receipt from the repository. Cells were grown in RPMI 1640 with 2 mM L-alanyl-glutamine (Sigma) and 15% fetal bovine serum (media and serum obtained from HyClone) in a humidified environment at 37° C. with 5% CO2. All experiments were conducted on cells grown and treated in parallel in identical media and growth conditions. […]
Quantitative real-time PCR was carried out using SYBR Green Master Mix (Roche) on a LightCycler 480 instrument (Roche). PCR primers were obtained from Integrated DNA Technologies (sequences available upon request), except for 18S, which was obtained from Qiagen as a QuantiTect Primer Assay. PCR reaction efficiency was calculated from standard curves, and reactions were assessed by both melting curves and by running on agarose gels to verify reaction products and the absence of primer-dimers. Quantitative cycle (Cq) values were determined using LightCycler 480 SW1.5.0SP3 software, version 1.5.0.39 (Roche). […] Statistical significance of differences in fold changes between genotypes in response to cell treatments (normalized to vehicle treatment for each genotype) was assessed by the Mann-Whitney U test. […]

FADS1 expression = FADS1 expression in lymphoblasts after drug treatment (qRT-PCR); type: cell-based, human; conditions: 24 hours; for FADS1 response to drug, D/D vs I/I haplotype homozygotes (in words): lymphoblasts, 1 μNI GW3965, 20 μM rosiglitazone
Procedure: Immortalized B-lymphocyte (lymphoblast) cell lines from Japanese HapMap participants were obtained from the Coriell Institute for Medical Research, and used within 10 passages of receipt from the repository. Cells were grown in RPMI 1640 with 2 mM L-alanyl-glutamine (Sigma) and 15% fetal bovine serum (media and serum obtained from HyClone) in a humidified environment at 37° C. with 5% CO2. All experiments were conducted on cells grown and treated in parallel in identical media and growth conditions. […] RNA was extracted using the RNeasy kit (Qiagen), and RNA quality was checked by agarose gel electrophoresis to verify RNA integrity and by 260/280 nm ratios on a NanoDrop 2000 (Thermo Scientific). cDNA was prepared using the High Capacity cDNA Reverse Transcription Kit (Applied Biosystems) according to the manufacturer's protocol.
Quantitative real-time PCR was carried out using SYBR Green Master Mix (Roche) on a LightCycler 480 instrument (Roche). PCR primers were obtained from Integrated DNA Technologies (sequences available upon request), except for 18S, which was obtained from Qiagen as a QuantiTect Primer Assay. PCR reaction efficiency was calculated from standard curves, and reactions were assessed by both melting curves and by running on agarose gels to verify reaction products and the absence of primer-dimers. Quantitative cycle (Cq) values were determined using LightCycler 480 SW1.5.0SP3 software, version 1.5.0.39 (Roche). […] Statistical significance of differences in fold changes between genotypes in response to cell treatments (normalized to vehicle treatment for each genotype) was assessed by the Mann-Whitney U test. Bootstrapping and randomization techniques were used in REST 2009 software (Qiagen) to calculate significance of fold changes normalizing both genotypes to basal expression in I/I allele homozygotes.
Follow-up experiments were carried out in Japanese HapMap lymphoblast cell lines homozygous for the D/D haplotype associated with FADS1 expression, or homozygous for the I/I haplotype. All available D/D haplotype homozygote cell lines were used (n=5), as well as randomly chosen I/I allele homozygote cell lines (n=11).
To investigate the possibility of a causal genetic variation in a transcription factor binding site, cells were treated with drugs acting directly or indirectly on PPARγ or SREBP-1c.

[1] = 5 μNI simvastatin, normalized to vehicle

Q: How did the “FADS2 response to treatment (in words)” value (FADS2 expression; I/I and D/D lymphoblasts, 20 μM rosiglitazone) turn out when `CN(CCOc1ccc(CC2SC(=O)NC2=O)cc1)c1ccccn1` (stereo not shown) [rosiglitazone] was run?
A: The value was “no response”.

Q: What about the “FADS1 response to drug, D/D vs I/I haplotype homozygotes (in words)” value (FADS1 expression; [1]) of the same molecule?
A: Its value is “no response”.

Q: What does the source list for `O=C(O)Cc1cccc(OCCCN(Cc2cccc(C(F)(F)F)c2Cl)CC(c2ccccc2)c2ccccc2)c1` [GW3965]?
A: FADS2 expression increase in D/D haplotype homozygotes compared with I/I (in words) (FADS2 expression; lymphoblasts, normalized to vehicle): even more; upregulation (induction) of FADS1 higher for the D/D haplotype than for I/I (FADS1 expression; D/D vs I/I haplotype homozygote lymphoblasts, 5 μNI simvastatin, 1 μNI GW3965): 25%; final FADS1 expression after treatment, difference between genotypes (in words) (FADS1 expression; D/D vs I/I lymphoblasts, normalized to basal I/I expression): did not significantly differ; also recorded: no longer significantly different; upregulation of FADS1 (FADS1 expression; I/I haplotype homozygote lymphoblasts, 5 μNI simvastatin, 1 μNI GW3965, normalized to vehicle): about two; FADS1 response to drug, D/D vs I/I haplotype homozygotes (in words) (FADS1 expression; [1]): significantly greater fold increase
